Assay results reported in the supplement of paper PMC10307832.

Key:
Assay in all cases: relative viability (nuclei count vs DMSO), 5 days (fraction); higher = more cells survive
[1] = compound: COC1=CC=C(C=C1)CN2C=CC3=C2C=C(C=C3)C(=O)NO
Method in brief: (§1)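 Following overnight incubation at 37 °C, lung cancer cell lines in 1536-well plates were pinned with five library-drug doses (not always all listed) in √10 steps on vehicle-anchored plates. The cells then spent 5 days without medium change before a combined fix, permeabilisation and Hoechst stain, 4× imaging and MetaXpress nuclear counts. Viability is the treated-to-vehicle ratio of nuclei, taken as the median across plates. Only plates with control CV below 25% and at least one doubling passed.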

Veliparib = compound: C[C@]1(c2nc3c(C(N)=O)cccc3[nH]2)CCCN1 [Veliparib]
Method in brief: as §1

Veliparib + Pemetrexed = compound: C[C@]1(c2nc3c(C(N)=O)cccc3[nH]2)CCCN1 [Veliparib] + Nc1nc2[nH]cc(CCc3ccc(C(=O)N[C@@H](CCC(=O)O)C(=O)O)cc3)c2c(=O)[nH]1 [Pemetrexed] (partner 0.2 µM)
Method in brief: (§2)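 Relative viability is defined as nuclei in treated wells over nuclei in vehicle wells. Duplicate plates were run and medians reported. Lung cancer cell lines in 1536-well plates were dosed by pin tool one day after seeding, with one drug or with a fixed anchor-drug dose plus five library-drug doses (not always all listed) in √10 steps, and nuclei were counted after 5 days.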

[2] = compound: COC1=CC=C(C=C1)CN2C=CC3=C2C=C(C=C3)C(=O)NO + Cc1nc(NC(=O)N2CCC[C@H]2C(N)=O)sc1-c1ccnc(C(C)(C)C(F)(F)F)c1 [Alpelisib] (partner 2 µM)
Method in brief: as §2

Row | Cell Line | relative viability ([1]; 0.08 µM) | relative viability ([1]; 0.253 µM) | relative viability ([1]; 0.8 µM) | relative viability ([1]; 2.53 µM) | relative viability ([1]; 8 µM) | relative viability (Veliparib; 0.02 µM) | relative viability (Veliparib; 0.06325 µM) | relative viability (Veliparib; 0.2 µM) | relative viability (Veliparib; 0.6325 µM) | relative viability (Veliparib; 2 µM) | relative viability (Veliparib + Pemetrexed; first compound 0.02 µM) | relative viability (Veliparib + Pemetrexed; first compound 0.06325 µM) | relative viability (Veliparib + Pemetrexed; first compound 0.2 µM) | relative viability (Veliparib + Pemetrexed; first compound 0.6325 µM) | relative viability (Veliparib + Pemetrexed; first compound 2 µM) | relative viability ([2]; first compound 0.08 µM) | relative viability ([2]; first compound 0.253 µM) | relative viability ([2]; first compound 0.8 µM) | relative viability ([2]; first compound 2.53 µM) | relative viability ([2]; first compound 8 µM)
1 | 201T | 1.02 | 0.987 | 1.05 | 0.993 | 0.942 | 0.901 | 0.926 | 0.959 | 1.11 | 1.01 | 0.345 | 0.334 | 0.355 | 0.352 | 0.362 | 0.948 | 1.08 | 1.07 | 1.03 | 1
2 | A549 | 0.905 | 1.01 | 0.953 | 0.986 | 0.895 | 1 | 0.957 | 0.962 | 0.9 | 0.989 |  |  |  |  |  | 0.643 | 0.812 | 0.743 | 0.749 | 0.58
3 | A-427 |  | 0.98 | 1.01 | 0.952 | 0.806 | 0.781 | 0.995 | 0.943 | 0.939 | 0.841 | 1 | 0.966 | 0.946 | 1.03 | 1.04 |  | 1.15 | 1.13 | 1.15 | 1.06
4 | ABC-1 |  | 0.941 | 0.845 | 0.94 | 0.703 |  | 0.842 | 0.925 | 0.841 | 0.958 |  |  |  |  |  |  | 1.37 | 0.928 | 1 | 1.17
5 | BEN | 1.03 | 0.986 | 0.936 | 0.976 | 0.856 | 0.833 | 0.873 | 0.987 | 0.86 | 0.87 | 0.576 | 0.771 | 0.743 | 0.795 | 0.631 | 0.972 | 1.07 | 1.06 | 0.967 | 0.929
6 | CAL-12T | 1.02 | 0.889 | 1.04 | 1.05 | 0.891 | 0.918 | 0.926 | 0.981 | 0.9 | 1.02 | 1.23 | 1.06 | 1.32 | 1.09 | 1.3 | 1.22 | 1.31 | 1.19 | 1.19 | 1.24
7 | COR-L23 | 0.874 | 0.992 | 1 | 1.01 | 0.933 | 0.998 | 0.872 | 0.924 | 0.952 | 1.03 | 0.206 | 0.202 | 0.201 | 0.181 | 0.202 | 0.493 | 0.897 | 0.793 | 0.892 | 0.551
8 | Calu-6 | 0.825 | 1.01 | 1.03 | 0.998 | 0.977 | 1 | 0.968 | 0.935 | 0.905 | 1 |  |  |  |  |  | 0.859 | 0.881 | 0.897 | 1.02 | 0.815
9 | ChaGo-K-1 |  | 1.04 | 1.01 | 1 | 0.834 | 0.842 | 0.978 | 0.966 | 0.965 | 0.775 | 0.227 | 0.266 | 0.245 | 0.246 | 0.257 |  |  |  |  | 
10 | EBC-1 | 0.71 | 0.931 | 1.04 | 0.987 | 0.923 | 1.05 | 0.93 | 0.983 | 0.915 | 1 |  |  |  |  |  | 0.817 | 0.842 | 0.848 | 0.815 | 0.737
11 | IA-LM | 0.91 | 0.949 | 1.03 | 1.08 | 0.868 | 0.918 | 0.831 | 0.952 | 0.896 | 0.886 |  |  |  |  |  | 0.609 | 0.743 | 0.732 | 0.852 | 0.776
12 | NCI-H522 |  | 0.946 | 0.968 | 0.869 | 0.793 | 0.947 | 0.958 | 0.912 | 1.07 | 1.04 | 0.981 | 0.814 | 0.761 | 1.16 | 0.785 |  |  |  |  | 
13 | NCI-H727 | 0.853 | 0.941 | 0.899 | 0.983 | 0.927 | 0.941 | 0.913 | 1.06 | 0.897 | 1 |  |  |  |  |  | 0.525 | 0.515 | 0.626 | 0.654 | 0.562
14 | NCI-H1299 | 1.01 | 1.04 | 1.03 | 1.02 | 0.99 | 0.993 | 1 | 1.01 | 0.968 | 1.02 |  |  |  |  |  | 1.09 | 1.05 | 1.05 | 1.08 | 1.04
15 | NCI-H1648 | 1 | 0.875 | 1.01 | 0.991 | 0.735 | 1.08 | 0.94 | 0.738 | 0.944 | 0.81 | 1 |  |  | 1.02 | 0.709 |  |  |  |  | 
16 | NCI-H1650 | 0.787 | 0.87 | 1.01 | 0.946 | 0.689 |  | 0.846 | 1.01 | 0.875 | 0.874 | 0.388 | 0.332 | 0.373 | 0.331 | 0.362 |  |  |  |  | 
17 | NCI-H1703 | 0.699 | 1.07 | 0.959 | 0.956 | 0.904 | 0.816 | 0.839 | 0.852 | 0.878 | 1.11 |  |  |  |  |  | 0.337 | 0.324 | 0.328 | 0.344 | 0.381
18 | NCI-H2342 | 0.946 | 0.973 | 0.992 | 0.997 | 0.827 | 0.966 | 0.968 | 0.94 | 0.873 | 0.979 | 0.675 | 0.721 | 0.744 | 0.784 | 0.771 |  |  |  |  | 
19 | SW 900 | 0.862 | 0.802 | 0.934 | 0.941 | 0.732 |  | 0.645 | 0.909 | 0.807 | 0.777 |  | 0.492 | 0.493 | 0.467 | 0.511 |  |  |  |  | 
